Read-outs that look alike come from different tables or passages of the source.
Key:
[1] = test system: HCV genotype 2a replicon (JFH-1); assay: anti-HCV activity in genotype 2a replicon (JFH-1); type: cell-based, hepatitis C virus; details: for EC50: Hepatitis C virus, read-out: EC50 (μM) JFH-1 (2a); for Selectivity Index JFH-1 (2a): genotype 2a replicon
MT-2 cells = assay: cytotoxicity in MT-2 cells; details: MT-2 cells
Huh 7.5 cells = assay: cytotoxicity (CC50) in HCV replicon cells / Huh 7.5 liver cells; details: cytotoxicity in replicon cells
HIV-1 [2] = assay: microbe, parasite or virus in culture
[3] = test system: HCV genotype 1b replicon (BM4-5); assay: anti-HCV activity in genotype 1b replicon (BM4-5); type: cell-based, hepatitis C virus; details: for EC50: Hepatitis C virus; for Selectivity Index BM4-5 (1b): genotype 1b replicon; for anti-HCV activity (in words): HCV replication in vitro
[4] = molecular target: HIV-1 reverse transcriptase (Human immunodeficiency virus type 1 group M subtype B, UniProt P04585); assay: HIV reverse transcriptase assay with primer-template pairs; type: biochemical; details: HIV-1 reverse transcriptase 50 nM, 37° C., 5 min
Procedure: (S)-MPMPA diphosphate was prepared as described in Example 56. Radiolabeled [γ-^32P]ATP and cordycepin triphosphate ([α-^32P]3′-deoxyATP) was purchased from PerkinElmer, and unlabeled deoxynucleoside triphosphates (dNTPs) were from Fermentas. RNA oligonucleotides were purchased from Sigma.
Oligonucleotide primer-template pairs were used as substrates for reverse transcriptase assays. Reverse transcriptase assays utilized RNA oligonucleotide templates. The primers were first end-labeled by using [γ-^32P]ATP and T4 polynucleotide kinase prior to annealing to the template strand. Various combinations of dNTPs and (S)-MPMPApp were added. […] After incubation of controls and (S)-MPMPA at 37° C. for 5 min, reaction mixtures were stopped by the addition of gel loading buffer [80% (v/v) formamide, 10 mM EDTA (pH 8.0), 1 mg/ml xylene cyanol FF, 1 mg/ml bromophenol blue]. Reaction products were resolved on 10% polyacrylamide gels and analyzed by phosphorimager analysis as previously described (Magee et al., 2005) using a Typhoon 9400 phosphorimager.).

HIV-1 [5] = details: for anti-HIV activity (in words): HIV-1 infected MT-2 cells; for Selectivity Index: MT-2 cells, HIV-1
[6] = antiviral activity and cytotoxicity of unmodified MPMPA (system not stated)
HIV-1NL43 = assay: HIV-1 replication in human peripheral blood mononuclear cells; type: cell-based; details: for activity against HIV-1 in human PBMCs (in words): HIV-1 infected human PBMCs; for EC50: Human immunodeficiency virus 1, PBMC, HIV-1NL43 in human PBMCs
[7] = cytotoxicity in human PBMCs
Vaccinia = assay: microbe, parasite or virus in culture; type: cell-based; details: Orthopoxvirus vaccinia
[8] = cytotoxicity (CC50) in HCV replicon cells / Huh 7.5 liver cells; details: human, Huh 7.5 liver cells
Cowpox = assay: organism not typed; type: cell-based; details: read-out: EC50 (μM) Cowpox
in vitro = details: human, HFF fibroblasts
HCMV = assay: antiviral activity against HCMV, plaque reduction assay in HFF cells; type: cell-based, human cytomegalovirus; details: Human betaherpesvirus 5, HFF, read-out: EC50 (μM) HCMV
HSV-1 = assay: antiviral activity against HSV-1, plaque reduction assay in HFF cells; type: cell-based, herpes simplex virus, type 1; details: Human alphaherpesvirus 1, HFF, read-out: EC50 (μM) HSV-1
[9] = Human immunodeficiency virus 1, MT2, MT-2 cells infected with HIV-1
[10] = BM4-5, read-out: EC50 (μM) BM4-5(1b)
[11] = Human immunodeficiency virus 1, MT2
[12] = BM4-5, read-out: EC50 values, range

Row | Structure (SMILES) | EC50 [1] | CC50 (MT-2 cells) | CC50 (Huh 7.5 cells) | EC50 (HIV-1 [2]; [9]) | EC50 [3, 10] | anti-HIV activity (in words) (HIV-1 [5]) | EC50 (HIV-1 [2]; [11]) | further results
1 | CCCCCCCCCCCCCCCCCCOCCOP(=O)(O)CO[C@H](COC)Cn1cnc2c(N)nc(N)nc21 [Cmpd 23, Octadecyloxyethyl (S)-9-[(3-methoxy-2-phosphonomethoxy)propyl]2,6-diaminopurine] | 21.4 ± 1.3 µM | 18 ± 5.3 µM | 99 ± 13.4 µM | 0.23 ± 0.15 µM | 20.1 ± 1.98 µM | – | – | –
2 | COC[C@H](Cn1cnc2c(N)ncnc21)OCP(=O)(O)OP(=O)(O)OP(=O)(O)O [(S)-MPMPA diphosphate] | – | – | – | – | – | – | – | inhibition of HIV reverse transcriptase activity (in words) [4]: inhibited HIV reverse transcriptase activity by chain termination
3 | CCCCCCCCCCCCCCCCCCOCCOP(=O)(O)CO[C@@H](COC)Cn1cnc2c(N)ncnc21 [Cmpd 16, Octadecyloxyethyl (R)-9-[(3-methoxy-2-phosphonomethoxy)propyl]adenine] | 5.33 µM | – | > 150 µM | 4.8 ± 3 µM | 4.65 µM | considerably less active and selective | – | –
4 | CCCCCCCCCCCCCCCCCCOCCOP(=O)(O)CO[C@H](COC)Cn1cnc2c(=O)[nH]c(N)nc21 [Cmpd 34, Octadecyloxyethyl (S)-9-[(3-methoxy-2-phosphonomethoxy)propyl]guanine] | 10.7 µM | 25 ± 13 µM | – | – | 8.26 µM | – | 0.2 µM | Selectivity Index JFH-1 (2a) [1]: >14.0; Selectivity Index (HIV-1 [5]): 125; Selectivity Index BM4-5 (1b) [3]: >18.2
5 | CCCCCCCCCCCCCCCCCCOCCOP(=O)(O)CO[C@@H](COC)Cn1cnc2c(N)nc(N)nc21 [Cmpd 24, Octadecyloxyethyl (R)-9-[(3-methoxy-2-phosphonomethoxy)propyl]2,6-diaminopurine] | 25.8 ± 6.1 µM | 19.7 ± 9.5 µM | > 150 µM | – | 25.6 ± 4.23 µM | – | – | –
6 | COC[C@H](Cn1cnc2c(N)ncnc21)OCP(=O)(O)O [MPMPA, 9-(S)-[3-methoxy-2-(phosphonomethoxy)propyl]adenine] | – | – | – | – | – | – | – | CC50 ([6]; cells not given): 40 µM; EC50 ([6]; virus and cells not stated): 20 µM
7 | CCCCCCCCCCCCCCCCOCCCOP(=O)(O)COC(COCC)Cn1cnc2c(N)ncnc21 (racemic) [Cmpd 18, hexadecyloxypropyl 9-(R,S)-[3-ethoxy-2-(phosphonomethoxy)propyl]adenine] | 8.87 µM | 23.6 ± 7.1 µM | 99 ± 0.5 µM | > 10 µM | 7.59 µM | loss of antiviral activity | – | –
8 | CCCCCCCCCCCCCCCCCCOCCOP(=O)(O)CO[C@H](COC)Cn1ccc(N)nc1=O [Cmpd 40, Octadecyloxyethyl (S)-1-[(3-methoxy-2-phosphonomethoxy)propyl]cytosine] | > 150 µM | 60.7 ± 16 µM | > 150 µM | – | > 150 µM | – | 12.7 µM | Selectivity Index (HIV-1 [5]): 4.8; activity against HIV-1 in human PBMCs (in words) (HIV-1NL43): antiviral activity; anti-HCV activity (in words) [3]: inactive
9 | CCCCCCCCCCCCCCCCOCCCOP(=O)(O)CO[C@H](COC)Cn1cnc2c(N)ncnc21 [Cmpd 17] | 4.64 µM | 32 ± 11 µM | > 150 µM | – | 2.36 µM | less active | 0.2 ± 0.26 µM | CC50 [7]: > 10 µM; activity against HIV-1 in human PBMCs (in words) (HIV-1NL43): active and selective; EC50 (HIV-1NL43): 0.2 µM
10 | CCCCCCCCCCCCCCCCOCCCOP(=O)(O)CO[C@H](COC)Cn1cnc2c(=O)[nH]c(N)nc21 [Cmpd 36] | 24.8 ± 7 µM | 29.3 ± 3.1 µM | > 150 µM | – | 22 ± 4.97 µM | less active | 2.03 ± 0.95 µM | CC50 [7]: > 100 µM; activity against HIV-1 in human PBMCs (in words) (HIV-1NL43; listed as HDP-(S)-MPMPG): active and selective; activity against HIV-1 in human PBMCs (in words) (HIV-1NL43; listed as hexadecyloxypropyl-(S)-MPMPG): submicromolar activity
11 | CCCCCCCCCCCCCCCCOCCCOP(=O)(O)CO[C@H](COC)Cn1cnc2c(OC)nc(N)nc21 [Cmpd 44, Hexadecyloxypropyl (S)-9-[(3-methoxy-2-phosphonomethoxy)propyl]-6-O-methylguanine] | 17.4 ± 0.3 µM | 34.3 ± 7.6 µM | > 150 µM | – | 18.1 ± 0.27 µM | – | > 10 µM | EC50 [3, 12]: 18 to 26 µM
12 | CCCCCCCCCCCCCCCCOCCCOP(=O)(O)COC(COC(C)C)Cn1cnc2c(N)ncnc21 (racemic) [Cmpd 19, hexadecyloxypropyl 9-(R,S)-[3-isopropoxy-2-(phosphonomethoxy)propyl]adenine] | 98.8 ± 20.8 µM | 30.3 ± 12.5 µM | 100 ± 20.8 µM | > 10 µM | 51.2 ± 38.2 µM | loss of antiviral activity | – | –
13 | CCCCCCCCCCCCCCCCCCOCCOP(=O)(O)CO[C@H](COC)Cn1cnc2c(N)ncnc21 [Cmpd 15, Octadecyloxyethyl (S)-9-[(3-methoxy-2-phosphonomethoxy)propyl]adenine] | 2.38 ± 1.09 µM | – | > 150 µM | – | 1.43 ± 0.38 µM | potent inhibitory activity | 0.03 µM | CC50 [7]: > 10 µM; EC50 (Vaccinia; read-out: EC50 (μM) Vaccinia): 18.3 ± 2.4 µM; EC50 (Vaccinia; read-out: EC50 for vaccinia inhibition): 18.3 µM; CC50 [8]: > 150 µM; EC50 (Cowpox): > 20 µM; CC50 (in vitro): 23.8 ± 2.6 µM; EC50 (HIV-1NL43): ~0.005 µM; EC50 (HCMV): 1.55 ± 0.4 µM; anti-HCV activity (in words) [3]: potent inhibitory activity; EC50 (HSV-1): 45.7 ± 10.1 µM
14 | CCCCCCCCCCCCCCCCOCCCOP(=O)(O)CO[C@H](COC)Cn1cnc2c(OC)ncnc21 [Cmpd 43, Hexadecyloxypropyl (S)-9-[(3-methoxy-2-phosphonomethoxy)propyl]-6-methoxypurine] | 12.5 ± 3.36 µM | 22 ± 3.5 µM | > 150 µM | – | 8.9 ± 1.22 µM | – | > 10 µM | EC50 [3, 12]: 8.9 to 12.5 µM
15 | CCCCCCCCCCCCCCCCCCOCCOP(=O)(O)CO[C@@H](COC)Cn1cnc2c(=O)[nH]c(N)nc21 [Cmpd 35, Octadecyloxyethyl (R)-9-[(3-methoxy-2-phosphonomethoxy)propyl]guanine] | 12.4 µM | 44 µM | > 150 µM | – | 12.6 µM | – | < 1e-05 µM | Selectivity Index JFH-1 (2a) [1]: >12.1; Selectivity Index BM4-5 (1b) [3]: >11.9
16 | CCCCCCCCCCCCCCCCOCCCOP(=O)(O)COC(COCC)Cn1cnc2c(=O)[nH]c(N)nc21 (racemic) [Cmpd 37, Hexadecyloxypropyl (R,S)-9-[3-ethoxy-2-phosphonomethoxy)propyl]guanine] | 13.2 ± 3.45 µM | 14.9 ± 6.7 µM | > 150 µM | > 10 µM | 25.5 ± 10.4 µM | large loss of anti-HIV activity | – | Selectivity Index JFH-1 (2a) [1]: >11.4; Selectivity Index BM4-5 (1b) [3]: >5.88
17 | CCCCCCCCCCCCCCCCOCCCOP(=O)(O)CO[C@H](COC)Cn1cnc2c(N)nc(N)nc21 [Cmpd 25] | 23.6 ± 2.7 µM | 22.7 ± 6.8 µM | 91.5 ± 17.8 µM | 4.6 ± 1.8 µM | 21.3 ± 3.1 µM | less active | – | –
18 | CCCCCCCCCCCCCCCCOCCCOP(=O)(O)COC(COCC)Cn1cnc2c(N)nc(N)nc21 (racemic) [Cmpd 26, Hexadecyloxypropyl (R,S)-9-[3-ethoxy-2-phosphonomethoxy)propyl-2,6-diaminopurine] | 19.5 ± 1.48 µM | 30.7 ± 11.7 µM | > 150 µM | > 10 µM | 18.2 ± 7.09 µM | large loss of anti-HIV activity | – | Selectivity Index JFH-1 (2a) [1]: >7.69; Selectivity Index BM4-5 (1b) [3]: >8.2
